Where two headings read alike, the source gives them in different places.
Legend:
[1] = target: T1, human recombinant serotonin (5-Hydroxytryptamine) 5-HT2A receptor (Homo sapiens, UniProt P28223); experiment: Serotonin 5-HT2A radioligand binding ([3H]Ketanserin); set-up: Inhibition of ligand binding, Ser. 5-HT2A: concentration or dose not given beside the values; conditions: percent inhibition of specific binding
T1 construct: expressed in transfected cells; host or cells: CHO-K1 cells
Procedure: (§1) Compounds of the invention were incubated with 0.5 nM [^3H]Ketanserin for 60 minutes at 25° C. Non-specific binding was estimated in the presence of 1 μM Mianserin. Receptor proteins were filtered and washed, the filters were then counted to determine [^3H]Ketanserin specifically bound. […] Biochemical assay results are presented as the percent inhibition of specific binding in Table 6.

[2] = target: T2, human recombinant serotonin (5-Hydroxytryptamine) 5-HT2C receptor (Homo sapiens, UniProt P28335); experiment: Serotonin 5-HT2C radioligand binding ([3H]Mesulergine); set-up: Inhibition of ligand binding, Ser. 5-HT2C: concentration or dose not given beside the values; conditions: percent inhibition of specific binding
T2 construct: expressed in transfected cells; host or cells: CHO-K1 cells
T2 sequence (P28335 33-458): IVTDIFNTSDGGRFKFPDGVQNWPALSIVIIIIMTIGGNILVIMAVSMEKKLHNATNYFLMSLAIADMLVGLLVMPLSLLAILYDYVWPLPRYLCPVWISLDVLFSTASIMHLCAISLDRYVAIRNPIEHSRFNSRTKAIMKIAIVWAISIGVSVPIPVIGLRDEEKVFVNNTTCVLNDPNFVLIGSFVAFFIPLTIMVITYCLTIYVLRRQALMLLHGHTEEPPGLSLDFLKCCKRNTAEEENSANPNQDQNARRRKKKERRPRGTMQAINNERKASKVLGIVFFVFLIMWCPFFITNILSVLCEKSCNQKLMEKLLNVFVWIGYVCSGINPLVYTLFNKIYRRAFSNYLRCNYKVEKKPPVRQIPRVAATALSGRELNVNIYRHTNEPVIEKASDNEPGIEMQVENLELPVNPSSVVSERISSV
Procedure: as §1, with “1” for “0.5”, “[^3H]Mesulergine” for “[^3H]Ketanserin”

[3] = target: T3, human recombinant histamine H1 receptor (Homo sapiens, UniProt P35367); experiment: Histamine H1 radioligand binding ([3H]Pyrilamine)
T3 construct: expressed in transfected cells; host or cells: CHO cells
Procedure: To evaluate in radioligand binding assays the activity of compounds of the invention, human recombinant histamine H1 receptor expressed in Chinese hamster ovary (CHO) cells (De Backer M D et al. Biochem. Biophys. Res Comm. 197(3):1601, 1993) in a modified Tris-HCl buffer (50 mM Tris-HCl, pH 7.4, 2 mM MgCl2, 100 mM NaCl, 250 mM Sucrose) were used. […] Non-specific binding was estimated in the presence of 1 μM pyrilamine. Receptor proteins were filtered and washed, the filters were then counted to determine [^3H]pyrilamine specifically bound. […] Biochemical assay results are presented as the percent inhibition of specific binding in Table 5.
To evaluate in radioligand binding assays the activity of compounds of the invention, human recombinant histamine H1 receptor expressed in Chinese hamster ovary (CHO) cells (De Backer, M. D. et al., Biochem. Biophys. Res. Comm. 197(3):1601, 1993) in a modified Tris-HCl buffer (50 mM Tris-HCl, pH 7.4, 2 mM MgCl2, 100 mM NaCl, 250 mM Sucrose) was used. […] Non-specific binding was estimated in the presence of 1 μM pyrilamine. Receptor proteins were filtered and washed, the filters were then counted to determine [^3H]Pyrilamine specifically bound. Compounds were screened at 1 μM, using 1% DMSO as vehicle. Biochemical assay results are presented as the percent inhibition of specific binding in Table 6.

[4] = target: T4, human recombinant adrenergic α2A receptor (Homo sapiens, UniProt P08913); experiment: Adrenergic α2A radioligand binding ([3H]MK-912); set-up: Inhibition of ligand binding, Adren. alpha2A: concentration or dose not given beside the values; conditions: percent inhibition of specific binding
T4 construct: expressed in transfected cells; host or cells: insect Sf9 cells
T4 sequence (P08913 1-465): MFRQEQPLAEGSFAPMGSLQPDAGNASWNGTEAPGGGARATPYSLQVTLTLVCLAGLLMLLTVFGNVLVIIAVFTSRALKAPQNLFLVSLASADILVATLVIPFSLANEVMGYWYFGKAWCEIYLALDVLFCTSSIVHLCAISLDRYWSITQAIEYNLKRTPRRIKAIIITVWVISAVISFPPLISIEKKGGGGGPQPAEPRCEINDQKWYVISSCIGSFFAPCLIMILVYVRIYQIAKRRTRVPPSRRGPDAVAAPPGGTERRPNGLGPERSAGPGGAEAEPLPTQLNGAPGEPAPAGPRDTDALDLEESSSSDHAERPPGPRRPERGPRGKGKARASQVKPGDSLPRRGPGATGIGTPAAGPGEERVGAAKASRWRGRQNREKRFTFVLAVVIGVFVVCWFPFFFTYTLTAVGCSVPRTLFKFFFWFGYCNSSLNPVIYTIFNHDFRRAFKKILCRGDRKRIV
Procedure: To evaluate in radioligand binding assays the activity of compounds of the invention, human recombinant adrenergic α2A receptor expressed in insect Sf9 cells (Uhlen S et al. J Pharmacol Exp Ther. 271:1558, 1994) in a modified Tris-HCl buffer (50 mM Tris-HCl, pH 7.4, 12.5 mM MgCl2, 2 mM EDTA) was used. Compounds of invention were incubated with 1 nM [^3H]MK-912 for 60 minutes at 25° C. MK912 is (2S-trans)-1,3,4,5′,6,6′,7,12b-octahydro-1′,3′-dimethyl-spiro[2H-benzofuro[2,3-a]quinolizine-2,4′(1′H)-pyrimidin]-2′(3′H)-one hydrochloride Non-specific binding was estimated in the presence of 10 μM WB-4101 (2-(2,6-Dimethoxyphenoxyethyl)aminomethyl-1,4-benzodioxane hydrochloride). Receptor proteins were filtered and washed, the filters were then counted to determine [^3H]MK-912 specifically bound. […] Biochemical assay results are presented as the percent inhibition of specific binding in Table 6.

[5] = target: T5, human recombinant serotonin (5-Hydroxytryptamine) 5-HT6 receptor (Homo sapiens, UniProt P50406); experiment: Serotonin 5-HT6 radioligand binding ([3H]LSD); set-up: Inhibition of ligand binding, Ser. 5-HT6: concentration or dose not given beside the values; conditions: percent inhibition of specific binding
T5 construct: expressed in transfected cells; host or cells: human HeLa cells
Text: Receptor proteins were filtered and washed, the filters were then counted to determine [3H]LSD specifically bound. […] Biochemical assay results are presented as the percent inhibition of specific binding in Table 6.

[6] = 1 μM compound, […] [3H]Pyrilamine, read-out: Histamine Binding H1, percent inhibition of specific binding
[7] = percent inhibition of specific binding, screened at 1 μM, read-out: Inhibition of ligand binding, Hist. H1

T5 sequence (P50406 whole entry): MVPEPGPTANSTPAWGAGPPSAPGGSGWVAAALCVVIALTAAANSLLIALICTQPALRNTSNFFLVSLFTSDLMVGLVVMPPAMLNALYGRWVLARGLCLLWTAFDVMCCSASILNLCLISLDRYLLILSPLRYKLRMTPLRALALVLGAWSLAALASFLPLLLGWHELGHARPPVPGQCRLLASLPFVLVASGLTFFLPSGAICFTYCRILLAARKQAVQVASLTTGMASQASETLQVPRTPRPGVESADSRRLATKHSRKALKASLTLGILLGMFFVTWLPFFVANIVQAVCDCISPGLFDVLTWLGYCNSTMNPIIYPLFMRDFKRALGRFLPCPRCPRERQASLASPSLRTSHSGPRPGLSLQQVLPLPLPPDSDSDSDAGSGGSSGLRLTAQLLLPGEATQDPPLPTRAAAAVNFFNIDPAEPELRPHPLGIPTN
T3 sequence (P35367 whole entry): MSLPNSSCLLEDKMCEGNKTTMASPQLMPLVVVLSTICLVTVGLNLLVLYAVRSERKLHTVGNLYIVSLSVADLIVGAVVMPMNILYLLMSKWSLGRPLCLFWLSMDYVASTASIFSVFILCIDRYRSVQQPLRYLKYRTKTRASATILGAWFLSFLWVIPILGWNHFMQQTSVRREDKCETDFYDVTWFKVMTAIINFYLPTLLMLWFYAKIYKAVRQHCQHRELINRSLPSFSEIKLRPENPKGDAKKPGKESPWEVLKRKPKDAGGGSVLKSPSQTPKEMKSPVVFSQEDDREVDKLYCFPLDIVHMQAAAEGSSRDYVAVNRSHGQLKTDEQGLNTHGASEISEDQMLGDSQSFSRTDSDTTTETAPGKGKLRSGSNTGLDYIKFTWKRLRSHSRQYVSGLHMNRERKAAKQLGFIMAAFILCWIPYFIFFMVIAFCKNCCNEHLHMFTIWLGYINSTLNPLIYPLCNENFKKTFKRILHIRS
T1 sequence (P28223 whole entry): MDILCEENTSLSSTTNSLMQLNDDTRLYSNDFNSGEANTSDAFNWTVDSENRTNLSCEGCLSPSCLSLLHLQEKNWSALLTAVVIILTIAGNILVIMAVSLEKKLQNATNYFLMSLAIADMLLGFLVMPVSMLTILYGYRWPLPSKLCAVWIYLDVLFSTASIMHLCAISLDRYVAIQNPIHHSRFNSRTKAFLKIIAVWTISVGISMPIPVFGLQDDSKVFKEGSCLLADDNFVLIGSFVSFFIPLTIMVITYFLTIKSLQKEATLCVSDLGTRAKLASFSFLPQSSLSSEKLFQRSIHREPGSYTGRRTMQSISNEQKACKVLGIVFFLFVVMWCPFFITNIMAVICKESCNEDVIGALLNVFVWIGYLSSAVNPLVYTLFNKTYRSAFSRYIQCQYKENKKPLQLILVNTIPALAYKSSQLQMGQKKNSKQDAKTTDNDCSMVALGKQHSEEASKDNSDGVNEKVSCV

Structure (SMILES)	Inhibition of ligand binding, Ser. 5-HT2C [2]	inhibition at 0.004 µM ([3]; 4 nM compound, […] [3H]Pyrilamine, read-out: Histamine Binding H1, percent inhibition of specific binding)	inhibition at 0.02 µM ([3]; 0.02 μM compound, […] [3H]Pyrilamine, read-out: Histamine Binding H1, percent inhibition of specific binding)	inhibition at 0.1 µM ([3]; 0.1 μM compound, […] [3H]Pyrilamine, read-out: Histamine Binding H1, percent inhibition of specific binding)	inhibition at 1 µM [3, 6]	inhibition at 1 µM [3, 7]	Inhibition of ligand binding, Adren. alpha2A [4]	Inhibition of ligand binding, Ser. 5-HT6 [5]	Inhibition of ligand binding, Ser. 5-HT2A [1]	inhibition at 0.01 µM ([3]; 10 nM (0.01 μM) compound, […] [3H]Pyrilamine, read-out: Histamine Binding H1, percent inhibition of specific binding)	inhibition at 0.03 µM ([3]; 0.03 μM compound, […] [3H]Pyrilamine, read-out: Histamine Binding H1, percent inhibition of specific binding)
Cc1ccc2c(c1)c1c(n2CCc2ccccc2)CCN(C)C1 [Compound 20, 2,3,4,5-tetrahydro-2,8-dimethyl-5-phenethyl-1H-pyrido[4,3-b]indole]	98%	34%	73%	93%	97%	97%	98%		98%		
Cc1ccc2c(c1)c1c(n2CCc2ccncc2)CCN(C)C1 [Compound 22, 2,3,4,5-tetrahydro-2,8-dimethyl-5-(2-(pyridin-4-yl)ethyl)-1H-pyrido[4,3-b]indole]	87%				100%	100%	72%		81%	36%	63%
CC1CN(C(=O)Cn2c3c(c4cc(Cl)ccc42)CN(C)CC3)CC(C)N1 (centres unmarked) [Compound 245]	20%				22%	22%	8%	−2%			
CN1CCc2c(c3cc(Cl)ccc3n2CC(=O)N2CCNC(=O)C2)C1 [Compound 246]	59%				18%	18%	21%	2%			
CC(=O)N1CCN(C(=O)Cn2c3c(c4cc(Cl)ccc42)CN(C)CC3)CC1 [Compound 297, 1-(4-Acetyl-piperazin-1-yl)-2-(8-chloro-2-methyl-1,2,3,4-tetrahydro-pyrido[4,3-b]indol-5-yl)-ethanone]	11%					43%	−2%	9%			

The next lines start with results.

Inhibition of ligand binding, Ser. 5-HT2C [2]	inhibition at 0.004 µM ([3]; 4 nM compound, […] [3H]Pyrilamine, read-out: Histamine Binding H1, percent inhibition of specific binding)	inhibition at 0.02 µM ([3]; 0.02 μM compound, […] [3H]Pyrilamine, read-out: Histamine Binding H1, percent inhibition of specific binding)	inhibition at 0.1 µM ([3]; 0.1 μM compound, […] [3H]Pyrilamine, read-out: Histamine Binding H1, percent inhibition of specific binding)	inhibition at 1 µM [3, 6]	inhibition at 1 µM [3, 7]	Inhibition of ligand binding, Adren. alpha2A [4]	Inhibition of ligand binding, Ser. 5-HT6 [5]	Structure (SMILES)	Inhibition of ligand binding, Ser. 5-HT2A [1]	inhibition at 0.01 µM ([3]; 10 nM (0.01 μM) compound, […] [3H]Pyrilamine, read-out: Histamine Binding H1, percent inhibition of specific binding)	inhibition at 0.03 µM ([3]; 0.03 μM compound, […] [3H]Pyrilamine, read-out: Histamine Binding H1, percent inhibition of specific binding)
54%				42%	42%	0%	18%	CN1CCc2c(c3cc(Cl)ccc3n2CC(=O)N2CCCCC2)C1 [Compound 236, 2-(8-chloro-1,2,3,4-tetrahydro-2-methylpyrido[4,3-b]indol-5-yl)-1-(piperidin-1-yl)ethanone]			
36%				77%	77%	26%	20%	CC1CCN(C(=O)Cn2c3c(c4cc(Cl)ccc42)CN(C)CC3)CC1 [Compound 237, 2-(8-chloro-1,2,3,4-tetrahydro-2-methylpyrido[4,3-b]indol-5-yl)-1-(4-methylpiperidin-1-yl)ethanone]			
20%				26%	26%	−13%	5%	CN1CCc2c(c3cc(Cl)ccc3n2CC(=O)N2CCOCC2)C1 [Compound 238, 2-(8-chloro-1,2,3,4-tetrahydro-2-methylpyrido[4,3-b]indol-5-yl)-1-morpholinoethanone]			
65%				50%	50%	0%	8%	CN1CCc2c(c3cc(Cl)ccc3n2CC(=O)N2CCSCC2)C1 [Compound 239, 2-(8-chloro-1,2,3,4-tetrahydro-2-methylpyrido[4,3-b]indol-5-yl)-1-thiomorpholinoethanone]			
27%				60%	60%	36%	25%	CN1CCc2c(c3cc(Cl)ccc3n2CCC(=O)N2CCCC2)C1 [Compound 240, 3-(8-chloro-1,2,3,4-tetrahydro-2-methylpyrido[4,3-b]indol-5-yl)-1-(pyrrolidin-1-yl)propan-1-one]			
33%				84%	84%	3%	12%	CN1CCc2c(c3cc(Cl)ccc3n2CC(=O)N2CCCC2)C1 [Compound 243, 2-(8-chloro-1,2,3,4-tetrahydro-2-methylpyrido[4,3-b]indol-5-yl)-1-(pyrrolidin-1-yl)ethanone]			
22%				15%	15%	22%	13%	CN1CCc2c(c3cc(Cl)ccc3n2CC(=O)N2CCNCC2)C1 [Compound 244]			
61%					50%	12%	15%	CC1CCCCN1C(=O)Cn1c2c(c3cc(Cl)ccc31)CN(C)CC2 (centres unmarked) [Compound 321, 2-(8-chloro-1,2,3,4-tetrahydro-2-methylpyrido[4,3-b]indol-5-yl)-1-(2-methylpiperidin-1-yl)ethanone]			
